Results: patent US5378838A, “Benzodiazepine cholecystokinin antagonists” (Merck & Co., Inc., priority 1993, dated 1995)
pIC50: −log10 of the molar value. Like-named read-outs stand apart in the source and are kept apart here. Non-standard residues stand in square brackets, D forms with d. Residues, ends and D or L forms follow the SMILES beside them. *: point of attachment. sY = N[C@@H](Cc1ccc(OS(=O)(=O)O)cc1)C(=O)O; Cbz = O=C(OCc1ccccc1)*

Legend:
CCK = conditions: literature; cited from earlier work
CCK-B receptors = conditions: literature; cited from earlier work
CCK receptor (brain) = target: T1, CCK receptor (brain) (Cavia porcellus, UniProt H0VZC5); experiment: CCK Receptor Binding (Brain), inhibition of 125I-CCK-8 binding; design: species or system guinea pig (male Hartley); conditions: guinea pig cortex, 50 pM 125I-CCK-8, pH 6.5, 25° C., 2 hours
T1 construct: the cortex was removed and homogenized in 25 mL ice-cold 0.32M sucrose; from tissue; host or cells: cortex P2 membranes of male Hartley guinea pigs
T1 sequence (H0VZC5 1-426): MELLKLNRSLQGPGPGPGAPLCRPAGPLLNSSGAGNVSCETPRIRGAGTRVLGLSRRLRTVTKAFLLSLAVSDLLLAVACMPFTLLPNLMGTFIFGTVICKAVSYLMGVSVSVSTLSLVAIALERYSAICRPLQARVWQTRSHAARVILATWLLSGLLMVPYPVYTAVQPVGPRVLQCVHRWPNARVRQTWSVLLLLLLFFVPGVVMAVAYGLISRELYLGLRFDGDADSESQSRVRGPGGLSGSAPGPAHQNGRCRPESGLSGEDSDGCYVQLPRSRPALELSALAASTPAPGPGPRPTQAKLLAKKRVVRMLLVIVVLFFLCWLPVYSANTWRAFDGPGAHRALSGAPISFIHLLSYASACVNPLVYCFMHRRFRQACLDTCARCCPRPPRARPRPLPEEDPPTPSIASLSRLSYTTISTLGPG
Experimental: CCK-8 sulphated was radiolabelled and the binding was performed according to the description for the pancreas method with minor modifications.
Male Hartley guinea pigs (300-500g) were sacrificed by decapitation and the cortex was removed and homogenized in 25 mL ice-cold 0.32M sucrose. The homogenates were centrifuged at 1000 g for 10 minutes and the resulting supernatant was recentrifuged at 20,000 g for 20 minutes. […] All assays were run in duplicate. The reaction mixtures were incubated at 25° C. for 2 hours and then the reaction was terminated on Whatman GF/C filters by rapid filtration (Brandell 24 well cell Harvester) with 3×5 ml washes of cold 100 mM NaCl. The radioactivity on the filters was then counted with a LKB gamma counter.
Drug displacement studies were performed with at least 10 concentrations of compounds of formula 1 and the IC50 values were determined by regression analysis. IC50 refers to the concentration of the compound required to inhibit 50% of specific binding of ^125 I-CCK-8.

CCK receptor (pancreas) = target: T2, CCK receptor (pancreas) (Rattus norvegicus, UniProt P30551); experiment: CCK Receptor Binding (Pancreas), inhibition of 125I-CCK-8 binding; design: species or system rat (male Sprague-Dawley)
T2 construct: The whole pancreas was dissected free of fat tissue and was homogenized; from tissue; host or cells: whole pancreas membranes of male Sprague-Dawley rats
T2 sequence (P30551 1-444): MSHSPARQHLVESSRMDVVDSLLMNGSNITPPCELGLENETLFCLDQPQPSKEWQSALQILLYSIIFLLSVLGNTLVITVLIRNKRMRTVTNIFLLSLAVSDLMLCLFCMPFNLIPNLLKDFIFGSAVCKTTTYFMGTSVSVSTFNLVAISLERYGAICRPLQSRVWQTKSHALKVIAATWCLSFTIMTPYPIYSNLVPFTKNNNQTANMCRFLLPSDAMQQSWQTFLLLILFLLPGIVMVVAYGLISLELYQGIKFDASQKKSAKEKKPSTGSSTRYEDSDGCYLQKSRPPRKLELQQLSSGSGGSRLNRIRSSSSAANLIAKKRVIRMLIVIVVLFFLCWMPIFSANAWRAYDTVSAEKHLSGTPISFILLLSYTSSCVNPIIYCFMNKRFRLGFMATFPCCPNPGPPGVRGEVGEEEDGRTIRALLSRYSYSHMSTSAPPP
Experimental: 1. CCK Receptor Binding (Pancreas)
Male Sprague-Dawley rats (150-200 g) were sacrificed by decapitation. The whole pancreas was dissected free of fat tissue and was homogenized in 25 volumes of ice-cold 10 mM Hepes buffer with 0.1% soya bean trypsin inhibitor (pH 7.4 at 25° C.) with a Kinematica Polytron. The homogenates were centrifuged at 47,800 g for 10 min. Pellets were resuspended in 10 volumes of binding assay buffer (20 mM Hepes, 1 mM EGTA, 5 mM MgCl2, 150 mM NaCl, bacitracin 0.25 mg/ml, soya bean trypsin inhibitor 0.1 mg/ml, and bovine serum albumin 2 mg/ml, pH 6.5 at 25° C.) using a teflon homogenizer, 15 strokes at 500 rpm. The homogenate was further diluted in binding assay buffer to give a final concentration of 0.5 mg original wet weight/l ml buffer. […] All assays were run in duplicate. The reaction mixtures were incubated at 25° C. for 2 hours and the reaction terminated by rapid filtration (Brandell 24 well cell harvester) over Whatman GF/C filters, washing 3×4 mls with ice-cold 100 mM NaCl. The radioactivity on the filters was counted with a LKB gamma counter.
Drug displacement studies were performed with at least 10 concentrations of compounds of formula 1 and the IC50 values were determined by regression analysis.

| Compound | CCK antagonist / agonist activity (in words) (CCK) | pIC50 (CCK receptor (brain)) | pIC50 (CCK receptor (pancreas)) | other results |
| --- | --- | --- | --- | --- |
| CCCC(=O)Nc1nc2c(ncn2[C@@H]2O[C@@H]3COP(=O)(O)O[C@H]3[C@H]2OC(=O)CCC)c(=O)[nH]1 [dibutyryl cyclic GMP] | the most potent | – | – | – |
| Cc1cccc(NC(=O)N[C@@H]2N=C(c3ccccc3)c3ccccc3N(C)C2=O)c1 [(R)-N-(2,3-dihydro-1-methyl-2-oxo-5-phenyl-1H-1,4-benzodiazepin-3-yl)-N^1-(3-methylphenyl) urea] | – | – | – | antagonist of CCK-B receptors (in words) (CCK-B receptors): potent and selective antagonist of CCK-B receptors |
| CN1C(=O)[C@H](NC(=O)Nc2cccc([C@@H](N)C(=O)O)c2)N=C(c2ccccc2)c2ccccc21 [Example 10, N-{(3R)-1,3-Dihydro-1-methyl-2-oxo-5-phenyl-1H-1,4-benzodiazepin-3-yl}-N'-{[3-((1R)-amino-1-carboxy)methylphenyl]-urea}] | – | 5.44 | < 5.52 | – |
| COC(=O)[C@H](Cc1cccc(NC(=O)N[C@@H]2N=C(c3ccccc3)c3ccccc3N(C)C2=O)c1)NC(=O)OC(C)(C)C [Example 1, N-{(3R)-1,3-Dihydro-1-methyl-2-oxo-5-phenyl-1H-1,4-benzodiazepin-3-yl}-N'-{[3-((2S)-tertbutyloxycarbonylamino-2-methoxycarbonyl)ethylphenyl]urea}] | – | 7.53 | < 5.52 | – |
| CSCC[C@H](NC(=O)[C@H](Cc1ccc(OS(=O)(=O)O)cc1)NC(=O)OCc1ccccc1)C(=O)NCC(=O)N[C@@H](Cc1c[nH]c2ccccc12)C(=O)N[C@@H](CCSC)C(=O)N[C@@H](CC(=O)O)C(N)=O [Cbz-Tyr(SO3 H)-Met-Gly-Trp-Met-Asp-NH2] (Cbz-[sY]MGWMD-NH2) | partial agonist | – | – | – |
| CN1C(=O)[C@H](NC(=O)Nc2cccc(C[C@H](N)C(=O)O)c2)N=C(C2CCCCC2)c2ccccc21 [Example 6, N-{(3R)-1,3-Dihydro-1-methyl-2-oxo-5-cyclohexyl-1H-1,4-benzodiazepin-3-yl}-N'-{[3-((2S )amino-2-carboxy)ethylphenyl]-urea}] | – | 8.96 | – | pIC50 (CCK receptor (pancreas); rat pancreas, 50 pM 125I-CCK-8, pH 6.5, 25° C., 2 hours, read-out: IC50 125I-CCK Pancreas): 5.75 |
